Experimental data reported in the NIST ThermoML archive (doi:10.1007/s10765-019-2537-x).
± gives the expanded uncertainty stated by the source.

Details: Liquid, transient hot wire

Cc1ccccc1 [toluene]
Details | thermal conductivity [W/m/K]
317.39 K, 5130 kPa | 0.1266 ± 0.04
317.42 K, 1050 kPa | 0.1251 ± 0.04
317.42 K, 10550 kPa | 0.1277 ± 0.04
317.46 K, 15330 kPa | 0.1292 ± 0.04
317.52 K, 20330 kPa | 0.133 ± 0.04
336.3 K, 20300 kPa | 0.1267 ± 0.04
336.32 K, 10150 kPa | 0.1229 ± 0.04
336.34 K, 15140 kPa | 0.1245 ± 0.04
336.39 K, 5020 kPa | 0.1205 ± 0.04
336.42 K, 1030 kPa | 0.1194 ± 0.04
356.27 K, 15170 kPa | 0.1205 ± 0.04
356.27 K, 20040 kPa | 0.1218 ± 0.04
356.36 K, 10440 kPa | 0.1184 ± 0.04
356.41 K, 1160 kPa | 0.1131 ± 0.04
356.43 K, 5170 kPa | 0.1166 ± 0.04
376.88 K, 20030 kPa | 0.1185 ± 0.04
376.95 K, 5200 kPa | 0.1108 ± 0.04
376.95 K, 10160 kPa | 0.1124 ± 0.04
376.95 K, 15270 kPa | 0.1147 ± 0.04
377.07 K, 1080 kPa | 0.1096 ± 0.04
395.96 K, 15140 kPa | 0.1121 ± 0.04
396.23 K, 10180 kPa | 0.1091 ± 0.04
396.26 K, 20010 kPa | 0.1141 ± 0.04
396.28 K, 5150 kPa | 0.1072 ± 0.04
396.32 K, 1030 kPa | 0.1059 ± 0.04
416.29 K, 20250 kPa | 0.1104 ± 0.04
416.33 K, 15150 kPa | 0.1066 ± 0.04
416.68 K, 5290 kPa | 0.1033 ± 0.04
416.72 K, 10280 kPa | 0.1054 ± 0.04
416.75 K, 1040 kPa | 0.1013 ± 0.04
436.23 K, 20100 kPa | 0.1051 ± 0.04
436.34 K, 15130 kPa | 0.1036 ± 0.04
436.37 K, 1020 kPa | 0.0972 ± 0.04
436.48 K, 10230 kPa | 0.1026 ± 0.04
436.52 K, 5170 kPa | 0.0992 ± 0.04
456.02 K, 20030 kPa | 0.1029 ± 0.04
456.04 K, 5400 kPa | 0.0956 ± 0.04
456.22 K, 15290 kPa | 0.1003 ± 0.04
456.24 K, 10330 kPa | 0.099 ± 0.04
456.26 K, 1140 kPa | 0.0928 ± 0.04
476.35 K, 10170 kPa | 0.0941 ± 0.04
476.38 K, 20260 kPa | 0.0994 ± 0.04
476.61 K, 1110 kPa | 0.0901 ± 0.04
476.73 K, 5010 kPa | 0.0914 ± 0.04
476.75 K, 15330 kPa | 0.0965 ± 0.04
496.03 K, 20300 kPa | 0.0962 ± 0.04
496.15 K, 2850 kPa | 0.0875 ± 0.04
496.27 K, 15290 kPa | 0.0945 ± 0.04
496.31 K, 10420 kPa | 0.0928 ± 0.04
496.49 K, 5210 kPa | 0.087 ± 0.04
516.06 K, 20190 kPa | 0.094 ± 0.04
516.2 K, 15360 kPa | 0.0916 ± 0.04
516.21 K, 10220 kPa | 0.0906 ± 0.04
516.4 K, 5090 kPa | 0.0862 ± 0.04
536.3 K, 10150 kPa | 0.0873 ± 0.04
536.39 K, 15400 kPa | 0.0897 ± 0.04
536.56 K, 20330 kPa | 0.0921 ± 0.04
556.53 K, 15430 kPa | 0.0908 ± 0.04
556.59 K, 20100 kPa | 0.0927 ± 0.04
556.68 K, 10050 kPa | 0.0869 ± 0.04
576.72 K, 20150 kPa | 0.0885 ± 0.04
